Residues, ends and D or L forms follow the SMILES beside them.
Key:
[1] = test system: Sprague Dawley rats injected with LPS (Salmonella Enteritidis); test: Survival of rats after intravenous LPS (septic shock test); assay type: in vivo, rat; conditions: male Sprague Dawley rats, LPS i.v. at dose giving about 30% survival, compound 3 μg/kg i.v. immediately after, monitored 7 days; control (LPS only) 23
Experimental: Male Sprague Dawley rats (175-200 g, Charles river, Calco, Italy) were intravenously injected with a dose of LPS (Salmonella Enteritidis, Sigma) in 0.2 ml of physiological solution, previously determined on the same batch of animals, as giving about 30% survival. Thereafter they were randomized into groups of at least 18 animals and each immediately inoculated intravenously with 3 μg/kg of some of the compounds representative of the invention. One group of animals was treated with LPS only and considered as the control. The animals were monitored for the following 7 days to determine their survival.

[2] = test system: Wistar rats with left coronary artery ligation; test: Cardioprotective activity following ischemia induced by occlusion of the left coronary artery in the anesthetized rat; assay type: in vivo; conditions: anesthetized male Wistar rats, 0.1 μg/kg/min i.v., left coronary artery ligated for 30 minutes
Text: The cardiovascular activity of the compounds of the invention was investigated by means of a test aiming at evaluating the cardioprotective activity following ischemia induced by the occlusion of the left coronary artery in the anestethized rat, performed substantially as described by C. Clark et al. Journ. Exp. Methods, 3, 357, 1980. It is known that the occlusion of the coronary artery causes several events altering the ECG-pattern including, among others, hypoxia, arrhythmias, with eventual death of the laboratory animals.
In this test, male Wistar rats, (350-450 g, Charles River) were divided into groups of at least 18 animals, anestethized with nembutal (65 mg/kg i.p.) and each connected to an electrocardiograph for continuously monitoring the ECG. The animals, maintained under artificial ventilation, underwent thoracotomy and, after incision of the pericardium, a suture thread was passed around the left coronary artery, near to its origins. The animals were then administered intravenously with 0.1 μg/kg/min of the compounds of the invention dissolved in saline. One group of animals (control group) were administered intravenously with saline (5 ml/kg/hr). After 15 minutes recovery, and provided that electocardiographic alteration was not recorded, the left coronary artery was ligated and the ligature was maintained for 30 minutes. During this period the animals were monitored and ventricular tachycardia (VT), ventricular fibrillations (VF) and mortality were7 assessed.

Question: How did the Survival percentage [1] turn out when `CC(C)CN(C(=O)CN)[C@@H](CCCCN)C(=O)N1CCC[C@H]1C(=O)O` [Example 9, H-Gly-(isoBut)Lys-Pro-OH.AcOH] was run?
Answer: Its Survival percentage is 39%.

Question: With `N=C(N)NCCC[C@H](NC(=O)[C@@H]1CCCN1C(=O)[C@@H]1CCCN1C(=O)CN)C(=O)O` [Example 11, H-Gly-Pro-Pro-Arg-OH.AcOH] (H-GPPR-OH) as the compound, how does the Survival percentage [1] read?
Answer: Its Survival percentage is 57%.

Question: Which results are given for `CCN[C@@H](CCCCN)C(=O)N1CCC[C@H]1C(=O)O` [Example 12, H-(Et)Lys-Pro-OH.AcOH]?
Answer: Survival percentage [1]: 44%; Mortality % ([2]; control 29): 12%; Incidence % V.F. (ventricular fibrillations) ([2]; control 86): 75%; Incidence % V.T. (ventricular tachycardia) ([2]; control 100): 10%

Question: Which Survival percentage [1] does the source give for “H-Gly-(Bzl)Lys-Pro-Arg-OH.2AcOH [Example 10]” here?
Answer: The Survival percentage was 43%.

Question: Which Survival percentage [1] does the source give for “H-Gly-(Et)Lys-Pro-Arg-OH.2AcOH [Example 15]” here?
Answer: Its Survival percentage is 33%.

Question: “H-Gly-(Et)Lys-Pro-Lys-OH.AcOH [Example 14]” was tested. Which Survival percentage [1] did it give?
Answer: The Survival percentage was 48%.

Source: US6342481B1, “Oligopeptides derived from C-reactive protein fragments” (priority 1993, dated 2002)
